From patent US10582709B2, “Butyrolactones as herbicides” (FMC Corporation, priority 2015, dated 2020)

How the values were obtained:
Format in all cases: in vivo
[1] = tested on: barnyardgrass (Echinochloa crus-galli); assay: Test B flooded paddy test, barnyardgrass; details: 500 g ai/ha; applied to paddy water at 2-leaf stage; 13 to 15 d; scale 0 no effect to 100 complete control
Protocol: (§1) Plant species in the flooded paddy test selected from rice (Oryza sativa), sedge, umbrella (small-flower umbrella sedge, Cyperus difformis), ducksalad (Heteranthera limosa), and barnyardgrass (Echinochloa crus-galli) were grown to the 2-leaf stage for testing. At time of treatment, test pots were flooded to 3 cm above the soil surface, treated by application of test compounds directly to the paddy water, and then maintained at that water depth for the duration of the test. Treated plants and controls were maintained in a greenhouse for 13 to 15 d, after which time all species were compared to controls and visually evaluated. Plant response ratings, summarized in Table B, are based on a scale of 0 to 100 where 0 is no effect and 100 is complete control. A dash (-) response means no test result.

[2] = tested on: ducksalad (Heteranthera limosa); assay: Test B flooded paddy test, ducksalad; details: 500 g ai/ha; applied to paddy water at 2-leaf stage; 13 to 15 d; scale 0 no effect to 100 complete control
Protocol: as §1

rice (Oryza sativa) = assay: Test B flooded paddy test, rice; details: 500 g ai/ha; applied to paddy water at 2-leaf stage; 13 to 15 d; scale 0 no effect to 100 complete control
Protocol: as §1

[3] = tested on: sedge, umbrella (small-flower umbrella sedge, Cyperus difformis); assay: Test B flooded paddy test, umbrella sedge; details: 500 g ai/ha; applied to paddy water at 2-leaf stage; 13 to 15 d; scale 0 no effect to 100 complete control
Protocol: as §1

[4] = tested on: barnyardgrass (Echinochloa crus-galli); assay: Test A preemergence, barnyardgrass; details: visual rating after approx. 10 d, 0 to 100 scale, 0 no effect, 100 complete control
Text: (§2) Seeds of plant species selected from barnyardgrass (Echinochloa crus-galli), crabgrass (large crabgrass, Digitaria sanguinalis), kochia (Kochia scoparia), ragweed (common ragweed, Ambrosia elatior), morningglory (Ipomoea spp.), velvetleaf (Abutilon theophrasti), ryegrass, Italian (Italian ryegrass, Lolium multiflorum), foxtail, giant (giant foxtail, Setaria faberii), wheat (Triticum aestivum), corn (Zea mays), and pigweed (Amaranthus retroflexus), were planted into a blend of loam soil and sand and treated preemergence with a directed soil spray using test chemicals formulated in a non-phytotoxic solvent mixture which included a surfactant. At the same time, plants selected from these crop and weed species and also blackgrass (Alopecurus myosuroides), and galium (catchweed bedstraw, Galium aparine), were planted in pots containing the same blend of loam soil and sand and treated with postemergence applications of test chemicals formulated in the same manner. Plants ranged in height from 2 to 10 cm and were in the one- to two-leaf stage for the postemergence treatment. Treated plants and untreated controls were maintained in a greenhouse for approximately 10 d, after which time all treated plants were compared to untreated controls and visually evaluated for injury. Plant response ratings, summarized in Table A, are based on a 0 to 100 scale where 0 is no effect and 100 is complete control. A dash (-) response means no test result.

kochia (Kochia scoparia) [5] = assay: Test A preemergence, kochia; details: visual rating after approx. 10 d, 0 to 100 scale, 0 no effect, 100 complete control
Text: as §2

[6] = tested on: ragweed (common ragweed, Ambrosia elatior); assay: Test A preemergence, ragweed; details: visual rating after approx. 10 d, 0 to 100 scale, 0 no effect, 100 complete control
Text: as §2

[7] = tested on: ryegrass, Italian (Italian ryegrass, Lolium multiflorum); assay: Test A preemergence, Italian ryegrass; details: visual rating after approx. 10 d, 0 to 100 scale, 0 no effect, 100 complete control
Text: as §2

[8] = tested on: foxtail, giant (giant foxtail, Setaria faberii); assay: Test A preemergence, giant foxtail; details: visual rating after approx. 10 d, 0 to 100 scale, 0 no effect, 100 complete control
Text: as §2

[9] = tested on: pigweed (Amaranthus retroflexus); assay: Test A preemergence, pigweed; details: visual rating after approx. 10 d, 0 to 100 scale, 0 no effect, 100 complete control
Text: as §2

[10] = tested on: barnyardgrass (Echinochloa crus-galli); assay: Test A postemergence, barnyardgrass; details: visual rating after approx. 10 d, 0 to 100 scale, 0 no effect, 100 complete control
Text: as §2

kochia (Kochia scoparia) [11] = assay: Test A postemergence, kochia; details: visual rating after approx. 10 d, 0 to 100 scale, 0 no effect, 100 complete control
Text: as §2

[12] = tested on: ragweed (common ragweed, Ambrosia elatior); assay: Test A postemergence, ragweed; details: visual rating after approx. 10 d, 0 to 100 scale, 0 no effect, 100 complete control
Text: as §2

[13] = tested on: ryegrass, Italian (Italian ryegrass, Lolium multiflorum); assay: Test A postemergence, Italian ryegrass; details: visual rating after approx. 10 d, 0 to 100 scale, 0 no effect, 100 complete control
Text: as §2

[14] = tested on: foxtail, giant (giant foxtail, Setaria faberii); assay: Test A postemergence, giant foxtail; details: visual rating after approx. 10 d, 0 to 100 scale, 0 no effect, 100 complete control
Text: as §2

[15] = tested on: wheat (Triticum aestivum); assay: Test A postemergence, wheat; details: visual rating after approx. 10 d, 0 to 100 scale, 0 no effect, 100 complete control
Text: as §2

corn (Zea mays) = assay: Test A postemergence, corn; details: visual rating after approx. 10 d, 0 to 100 scale, 0 no effect, 100 complete control
Text: as §2

[16] = tested on: pigweed (Amaranthus retroflexus); assay: Test A postemergence, pigweed; details: visual rating after approx. 10 d, 0 to 100 scale, 0 no effect, 100 complete control
Text: as §2

[17] = tested on: blackgrass (Alopecurus myosuroides); assay: Test A postemergence, blackgrass; details: visual rating after approx. 10 d, 0 to 100 scale, 0 no effect, 100 complete control
Text: as §2

[18] = tested on: galium (catchweed bedstraw, Galium aparine); assay: Test A postemergence, galium; details: visual rating after approx. 10 d, 0 to 100 scale, 0 no effect, 100 complete control
Text: as §2

Row | SMILES | Plant response rating, Flood, Barnyardgrass [1] | Plant response rating, Flood, Ducksalad [2] | Plant response rating, Flood, Rice (rice (Oryza sativa)) | Plant response rating, Flood, Sedge, Umbrella [3] | Plant response rating, Barnyardgrass ([4]; 125 g ai/ha) | Plant response rating, Barnyardgrass ([4]; 500 g ai/ha) | Plant response rating, Kochia (kochia (Kochia scoparia) [5]; 125 g ai/ha) | Plant response rating, Kochia (kochia (Kochia scoparia) [5]; 500 g ai/ha) | Plant response rating, Ragweed ([6]; 125 g ai/ha) | Plant response rating, Ragweed ([6]; 500 g ai/ha) | Plant response rating, Ryegrass, Italian ([7]; 125 g ai/ha) | Plant response rating, Ryegrass, Italian ([7]; 500 g ai/ha) | Plant response rating, Foxtail, Giant ([8]; 125 g ai/ha) | Plant response rating, Foxtail, Giant ([8]; 500 g ai/ha) | Plant response rating, Pigweed ([9]; 125 g ai/ha) | Plant response rating, Pigweed ([9]; 500 g ai/ha) | Plant response rating, Barnyardgrass ([10]; 125 g ai/ha) | Plant response rating, Barnyardgrass ([10]; 500 g ai/ha) | Plant response rating, Kochia (kochia (Kochia scoparia) [11]; 125 g ai/ha) | Plant response rating, Kochia (kochia (Kochia scoparia) [11]; 500 g ai/ha) | also measured
1 | O=C(Nc1ccccc1F)C1C(=O)OCC1c1ccc(F)c(C(F)(F)F)c1 (racemic) [Compound 16] | 0 | 0 | 0 | 0 | 30 | 60 | 0 | 0 | 0 | 0 | 0 | 0 | 50 | 80 | 0 | 0 | 20 | 50 | 0 | 0 | Plant response rating, Ragweed ([12]; 125 g ai/ha): 0; Plant response rating, Ragweed ([12]; 500 g ai/ha): 0; Plant response rating, Ryegrass, Italian ([13]; 125 g ai/ha): 0; Plant response rating, Ryegrass, Italian ([13]; 500 g ai/ha): 0; Plant response rating, Foxtail, Giant ([14]; 125 g ai/ha): 20; Plant response rating, Foxtail, Giant ([14]; 500 g ai/ha): 40; Plant response rating, Wheat ([15]; 125 g ai/ha): 0; Plant response rating, Wheat ([15]; 500 g ai/ha): 0; Plant response rating, Corn (corn (Zea mays); 125 g ai/ha): 0; Plant response rating, Corn (corn (Zea mays); 500 g ai/ha): 0; Plant response rating, Pigweed ([16]; 125 g ai/ha): 0; Plant response rating, Pigweed ([16]; 500 g ai/ha): 0; Plant response rating, Blackgrass ([17]; 125 g ai/ha): 0; Plant response rating, Blackgrass ([17]; 500 g ai/ha): 0; Plant response rating, Galium ([18]; 125 g ai/ha): 0; Plant response rating, Galium ([18]; 500 g ai/ha): 0
2 | O=C(Nc1cccc(F)c1F)C1C(=O)OCC1c1cccc(C(F)(F)F)c1 (racemic) [Compound 12] | 0 | 0 | 0 | 0 | 20 | 30 | 0 | 20 | 0 | 0 | 0 | 20 | 30 | 60 | 0 | 0 | 40 | 40 | 0 | 0 | Plant response rating, Ragweed ([12]; 125 g ai/ha): 0; Plant response rating, Ragweed ([12]; 500 g ai/ha): 0; Plant response rating, Ryegrass, Italian ([13]; 125 g ai/ha): 0; Plant response rating, Ryegrass, Italian ([13]; 500 g ai/ha): 0; Plant response rating, Foxtail, Giant ([14]; 125 g ai/ha): 30; Plant response rating, Foxtail, Giant ([14]; 500 g ai/ha): 70; Plant response rating, Wheat ([15]; 125 g ai/ha): 0; Plant response rating, Wheat ([15]; 500 g ai/ha): 0; Plant response rating, Corn (corn (Zea mays); 125 g ai/ha): 0; Plant response rating, Corn (corn (Zea mays); 500 g ai/ha): 0; Plant response rating, Pigweed ([16]; 125 g ai/ha): 0; Plant response rating, Pigweed ([16]; 500 g ai/ha): 0; Plant response rating, Blackgrass ([17]; 125 g ai/ha): 0; Plant response rating, Blackgrass ([17]; 500 g ai/ha): 0; Plant response rating, Galium ([18]; 125 g ai/ha): 0; Plant response rating, Galium ([18]; 500 g ai/ha): 0
3 | O=C(Nc1cccc(F)c1F)C1C(=O)OCC1c1ccc(F)c(C(F)(F)F)c1 (racemic) [Compound 15] | 0 | 0 | 0 | 0 | 40 | 70 | 0 | 0 | 0 | 0 | 0 | 40 | 70 | 90 | 0 | 0 | 30 | 70 | 0 | 0 | Plant response rating, Ragweed ([12]; 125 g ai/ha): 0; Plant response rating, Ragweed ([12]; 500 g ai/ha): 0; Plant response rating, Ryegrass, Italian ([13]; 125 g ai/ha): 0; Plant response rating, Ryegrass, Italian ([13]; 500 g ai/ha): 20; Plant response rating, Foxtail, Giant ([14]; 125 g ai/ha): 30; Plant response rating, Foxtail, Giant ([14]; 500 g ai/ha): 70; Plant response rating, Wheat ([15]; 125 g ai/ha): 0; Plant response rating, Wheat ([15]; 500 g ai/ha): 20; Plant response rating, Corn (corn (Zea mays); 125 g ai/ha): 0; Plant response rating, Corn (corn (Zea mays); 500 g ai/ha): 20; Plant response rating, Pigweed ([16]; 125 g ai/ha): 0; Plant response rating, Pigweed ([16]; 500 g ai/ha): 0; Plant response rating, Blackgrass ([17]; 125 g ai/ha): 0; Plant response rating, Blackgrass ([17]; 500 g ai/ha): 20; Plant response rating, Galium ([18]; 125 g ai/ha): 0; Plant response rating, Galium ([18]; 500 g ai/ha): 20
4 | O=C(Nc1cccc(F)c1C(F)(F)F)C1C(=O)OCC1c1cccc(C(F)(F)F)c1 (racemic) [Compound 13] | 0 | 0 | 0 | 0 | 0 | 0 | 0 | 0 | 0 | 0 | 0 | 0 | 40 | 70 | 0 | 0 | 0 | 0 | 0 | 0 | Plant response rating, Ragweed ([12]; 125 g ai/ha): 0; Plant response rating, Ragweed ([12]; 500 g ai/ha): 0; Plant response rating, Ryegrass, Italian ([13]; 125 g ai/ha): 0; Plant response rating, Ryegrass, Italian ([13]; 500 g ai/ha): 0; Plant response rating, Foxtail, Giant ([14]; 125 g ai/ha): 20; Plant response rating, Foxtail, Giant ([14]; 500 g ai/ha): 40; Plant response rating, Wheat ([15]; 125 g ai/ha): 0; Plant response rating, Wheat ([15]; 500 g ai/ha): 0; Plant response rating, Corn (corn (Zea mays); 125 g ai/ha): 0; Plant response rating, Corn (corn (Zea mays); 500 g ai/ha): 0; Plant response rating, Pigweed ([16]; 125 g ai/ha): 0; Plant response rating, Pigweed ([16]; 500 g ai/ha): 0; Plant response rating, Blackgrass ([17]; 125 g ai/ha): 0; Plant response rating, Blackgrass ([17]; 500 g ai/ha): 0; Plant response rating, Galium ([18]; 125 g ai/ha): 0; Plant response rating, Galium ([18]; 500 g ai/ha): 0
5 | O=C(Nc1ccccc1F)C1C(=O)OCC1c1cccc(C(F)(F)F)c1 (racemic) [Compound 11] | 0 | 0 | 0 | 0 | 30 | 80 | 0 | 0 | 0 | 0 | 0 | 0 | 70 | 80 | 0 | 0 | 10 | 40 | 0 | 0 | Plant response rating, Ragweed ([12]; 125 g ai/ha): 0; Plant response rating, Ragweed ([12]; 500 g ai/ha): 0; Plant response rating, Ryegrass, Italian ([13]; 125 g ai/ha): 0; Plant response rating, Ryegrass, Italian ([13]; 500 g ai/ha): 0; Plant response rating, Foxtail, Giant ([14]; 125 g ai/ha): 20; Plant response rating, Foxtail, Giant ([14]; 500 g ai/ha): 60; Plant response rating, Wheat ([15]; 125 g ai/ha): 0; Plant response rating, Wheat ([15]; 500 g ai/ha): 20; Plant response rating, Corn (corn (Zea mays); 125 g ai/ha): 0; Plant response rating, Corn (corn (Zea mays); 500 g ai/ha): 0; Plant response rating, Pigweed ([16]; 125 g ai/ha): 0; Plant response rating, Pigweed ([16]; 500 g ai/ha): 0; Plant response rating, Blackgrass ([17]; 125 g ai/ha): 0; Plant response rating, Blackgrass ([17]; 500 g ai/ha): 0; Plant response rating, Galium ([18]; 125 g ai/ha): 0; Plant response rating, Galium ([18]; 500 g ai/ha): 0
